Assay results as given in US5902794A (priority 1997, dated 1999).
Read-outs that look alike come from different tables or passages of the source.

What was measured:
R^I receptor = settings: cited from earlier work
R^II = settings: cited from earlier work
[1] = tested on: MCF-7 ras breast cancer cell line; assay: synergistic growth inhibition by C-6 and C-8 analogue combination; type: cell-based; settings: Homo sapiens, MCF7, alone, read-out: percentage growth inhibition of analogue added alone
Experimental: (§1) All breast cancer cell lines were grown in IMEM supplemented with 10% fetal bovine serum, 20 mM HEPES, penicillin-streptomycin, and extra glutamine. Colon carcinoma cell lines were grown in EMEM supplemented with 10% FBS, EMEM, NEAA, HEPES 20 mM, extra glutamine, and penicillin-streptomycin. The cells were grown at 37° C. in humidified incubators in an atmosphere of 5% CO2.
(§2) For cell growth experiments, 2-3×10^5 cells/60 mm dish were seeded, and 24 hours later (Day 0), the medium was removed, and fresh medium and the additives were added then and every 48 hours thereafter The compounds of the present invention were added using 100× concentrated stock solutions. At desired times, cell counts in duplicate were performed on a Coulter counter after harvesting the cells with gentle trypsinization.
Synergism quotient was defined as the net growth inhibitory effect of the analogue combination divided by the sum of the net analogue effects on growth inhibition A quotient of >1 indicates a synergistic effect, while a quotient of <1 indicates an antagonistic effect.
Synergism of growth inhibition was determined by treatment of
cells with C-6 analogues and C-8 analogues alone and in combination at
Day 0 and Day 2 and counting the cell number at Day 4

[2] = tested on: R^II cAMP receptor protein (MDA-MB-231); assay: photoaffinity labelling of R^II cAMP receptor protein, MDA-MB-231; type: cell-based, human; settings: 10 microM, 3 days; relative to control R^I
Experimental: (§3) M is marker proteins of known molecular weight.
(§4) The incubations were carried out at 23° C. for 60 minutes in 96-well immunoplates. The reaction mixtures were then irradiated for 30 seconds at 254 nm, placing a Mineralite UVS-11 hand lamp directly onto the plate. The samples were mixed with 25 microliters of 3× sample buffer (3% SDS, 15% beta-mercaptoethanol, 30 mM Tris, 30% glycerol, 1% bromophenol blue saturated solution), boiled for 3 minutes, and centrifuged at 700×g for five minutes. The samples containing 50-100 micrograms of protein were subjected to 0.05% SDS-12% PAGE. The gels were fixed, dried, and exposed to X-ray films overnight. The protein concentrations were determined by the method of Lowry et al., (J. Biol. Chem. 193: 265-275, 1951) with bovine serum albumin as standard.
(§5) The levels of the receptor proteins are expressed relative to the R^I level in the untreated control cells of MDA-MB-231 and LS-174T, which are each set equal to 1.0 O.D.; the scale was expanded to differentiate the lower intensity bands.

[3] = tested on: R^I cAMP receptor protein (LS-174T); assay: photoaffinity labelling of R^I cAMP receptor protein, LS-174T; type: cell-based, human; settings: 10 microM, 3 days; control 1.0
Experimental: as §3, §4, §5

MDA-MB-231 = assay: growth of MDA-MB-231 cells; type: cell-based; settings: Homo sapiens, MDA-MB-231, 72 h; 10 microM, 3 days
Experimental: as §3, §1, §2

[4] = tested on: R^I cAMP receptor protein (MDA-MB-231); assay: photoaffinity labelling of R^I cAMP receptor protein, MDA-MB-231; type: cell-based, human; settings: 10 microM, 3 days; control 1.0
Experimental: as §3, §4, §5

[5] = tested on: breast and colon cancer cell lines; assay: cell cycle progression of breast and colon cancer cell lines; type: cell-based, human; settings: vs untreated control cells
Experimental: DNA histograms were generated on FACS II by using the DNA intercalating dye propidium iodide as described by Braylan et al. (Cytometry 2: 337-343, 1982). The percentage of cells in each cycle phase was calculated by using a PDP-11/34 computer and software as described by Neckers et al. (Mol. Cell. Biol. 6: 4244-4250, 1986).
A determination was made whether the reduced cell proliferation observed in the cancer cell lines after treatment with the compounds of the present invention is due to a specific block in one phase of the cell cycle.

[6] = tested on: breast and colon cancer cells; assay: effect on cell morphology; type: cell-based, human
Description: The photographs were taken on Day 4, ×160.
Furthermore, the synergistic growth inhibitory effect of C-6 and C-8 analogue combinations was also reflected in the change in the cell morphology.

LS-174T = assay: growth of LS-174T cells; type: cell-based; settings: Homo sapiens, LS174T, 72 h; 10 microM, 3 days
Experimental: as §3, §1, §2

[7] = tested on: R^II cAMP receptor protein (LS-174T); assay: photoaffinity labelling of R^II cAMP receptor protein, LS-174T; type: cell-based, human; settings: 10 microM, 3 days; relative to control R^I
Experimental: as §3, §4, §5

[8] = tested on: R^I and R^II cAMP receptor proteins in breast (MDA-MB-231) and colon (LS-174T) cancer cells; assay: R^I and R^II cAMP receptor protein levels in breast and colon cancer lines (FIG. 6); type: cell-based, human
Experimental: as §3, §4

[9] = tested on: hormone-dependent breast cancer lines; settings: millimolar concentrations; previously reported; cited from earlier work
[10] = tested on: leukemic cell lines (HL-60, K-562, myc-K562, Molt-4); assay: growth inhibition and viability of leukemic cell lines; type: cell-based, human; settings: for growth inhibitory effect: alone; for enhancement of the analog effect: in combination with the analogue
YAC lymphoma cell = settings: mouse, in vivo; cited from earlier work
cells = assay: growth inhibition by 8-Cl-AMP; type: cell-based; settings: as high as 100 microM
[11] = tested on: cultured human fibroblasts; settings: cited from earlier work
[12] = tested on: hormone-independent breast and colon cancer cell lines; assay: growth inhibition of hormone-independent breast and colon cancer lines; type: cell-based, human; settings: for growth inhibitory effect: alone; for enhancement of the effect of the site-selective compounds: in combination with the site-selective compounds
Experimental: as §1, §2

[13] = tested on: disseminated neuroblastomas; settings: in a combined drug regimen; cited from earlier work
[14] = tested on: breast (MCF-7) and (LS-174T) colon cancer cell lines; assay: growth inhibition of breast (MCF-7) and colon (LS-174T) cancer cell lines; type: cell-based, human; settings: 50 micromolar

Molecule: Nc1ncnc2c1nc(N1CCCCC1)n2[C@@H]1O[C@@H]2COP(=O)(O)O[C@H]2[C@H]1O [8-piperidino-cAMP, reference compound]
- site selectivity of binding, R^I (R^I receptor): binds to site 2
- site selectivity of binding, R^II (R^II): selectively binds to site 1

Molecule: O=C(Nc1ncnc2c1ncn2[C@@H]1O[C@@H]2COP(=O)(O)O[C@H]2[C@H]1O)c1ccccc1 [N^6 -benzoyl-cAMP]
- inhibition at 0.5 µM [1]: 10%

Molecule: O=P1(O)OC[C@H]2O[C@@H](n3cnc4c(NCc5ccccc5)ncnc43)[C@H](O)[C@@H]2O1 [N^6 -benzyl-cAMP]
- R^II relative level [2]: 0.07 ± 0.01
- R^I relative level [3]: 0.20 ± 0.02
- activity at 10 µM (MDA-MB-231): 55%
- R^I relative level [4]: 0.25 ± 0.03
- fractions of cells in G1, S and G2/M phases, in words [5]: not appreciably different
- morphological change ([6]; 0.5 microM alone, four days): did not induce a change in the cell morphology
- morphological change ([6]; 50 microM, three to four days): induced the morphological change
- activity at 10 µM (LS-174T): 35%
- R^II relative level [7]: 0.25 ± 0.02
- increase in the ratio of R^II to R^I ([8]; densitometry): two- to three-fold increase
- 48,000 R^I receptor protein, in words ([8]; three days, 10 microM): concomitant decrease
- 52,000 MW (R^II) receptor protein, in words ([8]; three days, 10 microM): increased appreciably
- inhibition at 0.5 µM [1]: 15%

Molecule: CCCC(=O)Nc1ncnc2c1ncn2[C@@H]1O[C@@H]2COP(=O)(O)O[C@H]2[C@H]1O [N^6 -butyryl cAMP]
- growth inhibition, hormone-dependent breast cancer lines [9]: growth inhibition only in the hormone-dependent breast cancer lines

Molecule: Nc1ncnc2c1nc(Br)n2[C@@H]1O[C@@H]2COP(=O)(O)O[C@H]2[C@H]1O [8-bromo-cAMP]
- potency relative to 8-Cl-cAMP, times less potent [10]: 5 to 20 times

Molecule: CSc1nc2c(N)ncnc2n1[C@@H]1O[C@@H]2COP(=O)(O)O[C@H]2[C@H]1O [8-methylthio-cAMP]
- potency relative to 8-Cl-cAMP, times less potent [10]: 5 to 20 times
- morphological change ([6]; 100 microM, three to four days): induced the morphological change
- inhibition at 1 µM [1]: 15%

Molecule: cholera toxin
- inhibition of YAC lymphoma cell proliferation (YAC lymphoma cell): almost complete inhibition

Molecule: Nc1ncnc2c1nc(Cl)n2[C@@H]1O[C@H](COP(=O)(O)O)[C@@H](O)[C@H]1O [8-Cl-AMP]
- growth inhibition (cells): no appreciable growth inhibition

Molecule: CC(C)Cn1c(=O)n(C)c(=O)c2[nH]cnc21 [1-methyl-3-isobutylxanthine]
- growth inhibitory effect ([10]; 0.5 mmol/L): little or no growth inhibitory effect
- enhancement of the analog effect [10]: could not enhance the analog effect
- DNA synthesis ([11]; added during first eight hours after serum addition): subsequent DNA synthesis was not delayed
- DNA synthesis ([11]; added more than eight hours after serum addition): inhibitory
- growth inhibitory effect ([12]; 0.5 mM): little or no growth inhibitory effect
- enhancement of the effect of the site-selective compounds [12]: could not enhance the effect

Molecule: COc1ccc(Cc2nccc3cc(OC)c(OC)cc23)cc1OC [papaverine]
- clinical result [13]: promising results

Molecule: O=P1(O)OC[C@H]2O[C@@H](n3c(Sc4ccc(Cl)cc4)nc4c(Nc5ccccc5)ncnc43)[C@H](O)[C@@H]2O1 [N^6-phenyl-8-p-chlorophenylthio-cAMP]
- growth inhibition, in words [14]: most potent growth inhibition among the C-6,-8 disubstituted analogues

Molecule: Cn1c(=O)c2[nH]cnc2n(C)c1=O [theophylline]
- growth inhibitory effect ([10]; 0.1 mmol/L): little or no growth inhibitory effect
- enhancement of the analog effect [10]: could not enhance the analog effect
- growth inhibitory effect ([12]; 0.1 mM): little or no growth inhibitory effect
- enhancement of the effect of the site-selective compounds [12]: could not enhance the effect

Molecule: CNc1nc2c(N)ncnc2n1[C@@H]1O[C@@H]2COP(=O)(O)O[C@H]2[C@H]1O [8-methylamino-cAMP]
- potency relative to 8-Cl-cAMP, times less potent [10]: 5 to 20 times
- inhibition at 1 µM [1]: 10%
